Measured values taken from patent publication US10266497B2 (ABIDE THERAPEUTICS, INC., priority 2017, dated 2019).

Columns and labels:
FAAH [1] = molecular target: T1, FAAH (Mus musculus, UniProt O08914); test: In vitro competitive activity-based protein profiling, FAAH, mouse; conditions: read-out: FAAH % inh. 1 μM (mouse)
T1 sequence (O08914 1-579): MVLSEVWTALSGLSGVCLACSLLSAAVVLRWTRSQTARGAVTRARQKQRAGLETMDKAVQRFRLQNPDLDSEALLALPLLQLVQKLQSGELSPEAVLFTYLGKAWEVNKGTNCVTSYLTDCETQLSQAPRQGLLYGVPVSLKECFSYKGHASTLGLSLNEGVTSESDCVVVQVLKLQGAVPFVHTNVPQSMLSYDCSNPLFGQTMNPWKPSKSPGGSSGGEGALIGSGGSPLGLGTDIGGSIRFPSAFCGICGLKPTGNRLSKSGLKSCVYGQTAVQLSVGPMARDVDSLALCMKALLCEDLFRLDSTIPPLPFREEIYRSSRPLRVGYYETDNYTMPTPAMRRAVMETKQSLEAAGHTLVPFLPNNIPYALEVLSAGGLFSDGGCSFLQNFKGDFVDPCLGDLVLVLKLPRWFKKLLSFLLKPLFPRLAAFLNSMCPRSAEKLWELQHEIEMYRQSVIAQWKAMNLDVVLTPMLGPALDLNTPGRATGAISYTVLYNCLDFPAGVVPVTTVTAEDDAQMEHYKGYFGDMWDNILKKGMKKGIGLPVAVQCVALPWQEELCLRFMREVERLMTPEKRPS

FAAH [2] = molecular target: T2, FAAH (Homo sapiens, UniProt O00519); test: In vitro competitive activity-based protein profiling, FAAH, human; conditions: for inhibition at 1 µM: read-out: FAAH % inh. 1 μM (human)
T2 sequence (O00519 1-579): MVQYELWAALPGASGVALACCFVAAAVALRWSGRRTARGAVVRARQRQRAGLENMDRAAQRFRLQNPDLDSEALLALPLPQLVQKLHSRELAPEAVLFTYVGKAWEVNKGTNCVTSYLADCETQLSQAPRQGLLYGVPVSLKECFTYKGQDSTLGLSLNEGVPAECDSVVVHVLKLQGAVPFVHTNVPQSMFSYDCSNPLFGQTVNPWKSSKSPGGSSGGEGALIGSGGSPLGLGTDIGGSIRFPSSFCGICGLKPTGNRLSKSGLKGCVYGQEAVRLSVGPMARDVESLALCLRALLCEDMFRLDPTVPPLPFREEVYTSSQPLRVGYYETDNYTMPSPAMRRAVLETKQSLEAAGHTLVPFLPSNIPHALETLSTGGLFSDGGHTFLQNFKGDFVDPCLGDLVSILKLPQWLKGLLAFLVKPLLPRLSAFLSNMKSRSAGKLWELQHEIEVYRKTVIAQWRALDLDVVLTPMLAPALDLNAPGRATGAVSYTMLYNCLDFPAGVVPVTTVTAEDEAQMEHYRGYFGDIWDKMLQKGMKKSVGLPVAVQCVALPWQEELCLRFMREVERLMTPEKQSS

MAGL [3] = molecular target: T3, MAGL (Homo sapiens, UniProt Q99685); test: In vitro competitive activity-based protein profiling, MAGL, human; conditions: for inhibition at 1 µM: read-out: MAGL % inh. 1 μM (human)
T3 sequence (Q99685 1-303): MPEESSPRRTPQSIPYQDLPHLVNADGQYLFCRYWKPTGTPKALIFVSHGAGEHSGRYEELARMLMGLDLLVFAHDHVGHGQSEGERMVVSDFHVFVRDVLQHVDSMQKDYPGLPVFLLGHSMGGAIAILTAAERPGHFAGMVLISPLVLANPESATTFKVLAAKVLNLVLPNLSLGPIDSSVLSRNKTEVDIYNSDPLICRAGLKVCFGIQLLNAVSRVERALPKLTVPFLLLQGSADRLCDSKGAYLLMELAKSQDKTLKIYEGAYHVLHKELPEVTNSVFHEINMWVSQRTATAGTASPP

MAGL [4] = molecular target: T4, MAGL (Mus musculus, UniProt O35678); test: In vitro competitive activity-based protein profiling, MAGL, mouse; conditions: read-out: MAGL % inh. 1 μM (mouse)
T4 sequence (O35678 1-303): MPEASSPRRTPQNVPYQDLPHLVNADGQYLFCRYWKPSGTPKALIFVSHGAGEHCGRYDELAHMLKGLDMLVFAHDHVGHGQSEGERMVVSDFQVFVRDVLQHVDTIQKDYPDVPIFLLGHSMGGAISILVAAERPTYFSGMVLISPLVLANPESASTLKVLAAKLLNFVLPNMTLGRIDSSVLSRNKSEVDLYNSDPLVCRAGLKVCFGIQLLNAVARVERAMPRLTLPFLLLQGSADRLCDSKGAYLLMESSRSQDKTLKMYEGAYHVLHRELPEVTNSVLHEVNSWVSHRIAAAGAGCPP

SMILES: O=C(O)c1ccn(C(=O)N2CCC(OCc3cc(F)cc(Cl)c3)CC2)n1 [Example 42, 1-(4-((3-chloro-5-fluorobenzyl)oxy)piperidine-1-carbonyl)-1H-pyrazole-3-carboxylic acid]
- inhibition at 1 µM (FAAH [1]): 0 to 25%
- IC50 (FAAH [2]): 100 to 1000 nM
- inhibition at 1 µM (FAAH [2]): > 75%
- IC50 (MAGL [3]): 100 to 1000 nM
- inhibition at 1 µM (MAGL [3]): > 75%
- inhibition at 1 µM (MAGL [4]): > 75%

SMILES: NC(=O)c1ccn(C(=O)N2CCN(Cc3ccc(C(F)(F)F)cc3N3CCCC3)CC2)n1 [Example 173, 1-(4-(2-(pyrrolidin-1-yl)-4-(trifluoromethyl)benzyl)piperazine-1-carbonyl)-1H-pyrazole-3-carboxamide]
- inhibition at 1 µM (FAAH [1]): 50 to 75%
- inhibition at 1 µM (FAAH [2]): > 75%
- inhibition at 1 µM (MAGL [3]): > 75%
- inhibition at 1 µM (MAGL [4]): > 75%

SMILES: O=C(O)c1nn(C(=O)N2CC3CC(OCc4ccccc4Cl)CC3C2)cc1C(F)(F)F (centres unmarked) [Example 143, 1-(5-((2-chlorobenzyl)oxy)octahydrocyclopenta [c]pyrrole-2-carbonyl)-4-(trifluoromethyl)-1H-pyrazole-3-carboxylic acid]
- inhibition at 1 µM (FAAH [1]): > 75%
- IC50 (FAAH [2]): 100 to 1000 nM
- inhibition at 1 µM (FAAH [2]): > 75%
- IC50 (MAGL [3]): 1000 to 10000 nM
- inhibition at 1 µM (MAGL [3]): 0 to 25%
- inhibition at 1 µM (MAGL [4]): 0 to 25%

SMILES: O=C(O)c1ccn(C(=O)N2CCN(Cc3ccc(C(F)(F)F)cc3N3CCC(F)CC3)CC2)n1 [Example 102, 1-(4-(2-(4-fluoropiperidin-1-yl)-4-(trifluoromethyl)benzyl)piperazine-1-carbonyl)-1H-pyrazole-3-carboxylic acid]
- inhibition at 1 µM (FAAH [1]): 0 to 25%
- inhibition at 1 µM (FAAH [2]): 25 to 50%
- inhibition at 1 µM (MAGL [3]): > 75%
- inhibition at 1 µM (MAGL [4]): > 75%

SMILES: O=C(O)c1ccn(C(=O)N2CCN(Cc3cccc(Oc4cnccn4)c3)CC2)n1 [Example 60]
- inhibition at 1 µM (FAAH [1]): 0 to 25%
- inhibition at 1 µM (FAAH [2]): 0 to 25%
- inhibition at 1 µM (MAGL [3]): 25 to 50%
- inhibition at 1 µM (MAGL [4]): 0 to 25%

SMILES: O=C(O)c1ccn(C(=O)N2CCC3(CCN(Cc4ccc(Oc5ccc(Cl)cc5)cc4)C3)CC2)n1 [Example 75, 1-(2-(4-(4-chlorophenoxy)benzyl)-2,8-diazaspiro[4.5]decane-8-carbonyl)-1H-pyrazole-3-carboxylic acid]
- inhibition at 1 µM (FAAH [1]): 50 to 75%
- inhibition at 1 µM (FAAH [2]): 0 to 25%
- inhibition at 1 µM (MAGL [3]): > 75%
- inhibition at 1 µM (MAGL [4]): 50 to 75%

SMILES: Cc1cn(C(=O)N2CCC3(CC2)CN(Cc2cc(Cl)ccc2C(F)(F)F)C3)nc1C(=O)O [Example 131, 1-(2-(5-chloro-2-(trifluoromethyl)benzyl)-2,7-diazaspiro[3.5]non-ane-7-carbonyl)-4-methyl-1H-pyrazole-3-carboxylic acid]
- inhibition at 1 µM (FAAH [1]): 0 to 25%
- IC50 (FAAH [2]): 1000 to 10000 nM
- inhibition at 1 µM (FAAH [2]): 0 to 25%
- IC50 (MAGL [3]): 100 to 1000 nM
- inhibition at 1 µM (MAGL [3]): > 75%
- inhibition at 1 µM (MAGL [4]): > 75%

SMILES: NC(=O)c1ccn(C(=O)N2CCC3(CCN(Cc4cc(Cl)ccc4C(F)(F)F)C3)CC2)n1 [Example 99, 1-(2-(5-chloro-2-(trifluoromethyl)benzyl)-2,8-diazaspiro[4.5]decane-8-carbonyl)-1H-pyrazole-3-carboxamide]
- inhibition at 1 µM (FAAH [1]): > 75%
- inhibition at 1 µM (FAAH [2]): > 75%
- inhibition at 1 µM (MAGL [3]): > 75%
- inhibition at 1 µM (MAGL [4]): > 75%

SMILES: O=C(O)c1ccn(C(=O)N2CCN(Cc3cccc(Oc4ccncn4)c3)CC2)n1 [Example 63, 1-(4-(3-(pyrimidin-4-yloxy)benzyl)piper-azine-1-carbonyl)-1H-pyrazole-3-carboxylic acid]
- inhibition at 1 µM (FAAH [1]): 0 to 25%
- inhibition at 1 µM (FAAH [2]): 50 to 75%
- inhibition at 1 µM (MAGL [3]): 25 to 50%
- inhibition at 1 µM (MAGL [4]): 0 to 25%

SMILES: O=C(O)c1ccn(C(=O)N2CC3CN(Cc4cc(F)cc(Cl)c4)CC3C2)n1 (centres unmarked) [Example 115, 1-(5-(3-chloro-5-fluorobenzyl)octa-hydropyrrolo[3,4-c]pyrrole-2-carbonyl)-1H-pyrazole-3-carboxylic acid]
- inhibition at 1 µM (FAAH [1]): > 75%
- inhibition at 1 µM (FAAH [2]): 50 to 75%
- inhibition at 1 µM (MAGL [3]): 25 to 50%
- inhibition at 1 µM (MAGL [4]): 0 to 25%

SMILES: O=C(O)c1ccn(C(=O)N2CCC3(CCN(Cc4cc(Cl)cc(N5CCCC5)c4)C3)CC2)n1 [Example 44, 1-(2-(3-chloro-5-(pyrrolidin-1-yl)benzyl)-2,8-diazaspiro[4.5]decane-8-carbonyl)-1H-pyrazole-3-carboxylic acid]
- inhibition at 1 µM (FAAH [1]): 0 to 25%
- inhibition at 1 µM (FAAH [2]): 0 to 25%
- inhibition at 1 µM (MAGL [3]): > 75%
- inhibition at 1 µM (MAGL [4]): > 75%

SMILES: O=C(O)c1ccn(C(=O)N2CCC3(CCN(Cc4ccc(N5CCCC5)cc4C(F)(F)F)C3)CC2)n1 [Example 191, 1-(2-(4-(pyrrolidin-1-yl)-2-(trifluoromethyl)benzyl)-2,8-diazaspiro[4.5]decane-8-carbonyl)-1H-pyrazole-3-carboxylic acid]
- inhibition at 1 µM (FAAH [1]): 0 to 25%
- inhibition at 1 µM (FAAH [2]): 0 to 25%
- inhibition at 1 µM (MAGL [3]): > 75%
- inhibition at 1 µM (MAGL [4]): > 75%

SMILES: O=C(O)c1ccn(C(=O)N2CCN(Cc3cccc(-c4ncccn4)c3)CC2)n1 [Example 64, 1-(4-(3-(pyrimidin-2-yl)benzyl)piperazine-1-carbonyl)-1H-pyrazole-3-carboxylic acid]
- inhibition at 1 µM (FAAH [1]): 0 to 25%
- inhibition at 1 µM (FAAH [2]): 0 to 25%
- inhibition at 1 µM (MAGL [3]): > 75%
- inhibition at 1 µM (MAGL [4]): > 75%

SMILES: Cc1cc(-c2ccccc2)ccc1CN1CCN(C(=O)n2ccc(C(=O)O)n2)CC1 [Example 16, 1-(4-((3-Methyl-[1,1′-biphenyl]-4-yl)methyl)piperazine-1-carbonyl)-1H-pyrazole-3-carboxylic Acid]
- inhibition at 1 µM (FAAH [1]): 50 to 75%
- IC50 (FAAH [2]): 1000 to 10000 nM
- inhibition at 1 µM (FAAH [2]): 0 to 25%
- inhibition at 1 µM (MAGL [3]): > 75%
- inhibition at 1 µM (MAGL [4]): > 75%

SMILES: O=C(O)c1nn(C(=O)N2CC3CN(Cc4cc(Cl)ccc4Cl)CC3C2)cc1C(F)(F)F (centres unmarked) [Example 146, 1-(5-(2,5-dichlorobenzyl)octa-hydropyrrolo[3,4-c]pyrrole-2-carbonyl)-4-(trifluoromethyl)-1H-pyrazole-3-carboxylic acid]
- inhibition at 1 µM (FAAH [1]): > 75%
- inhibition at 1 µM (FAAH [2]): > 75%
- inhibition at 1 µM (MAGL [3]): > 75%
- inhibition at 1 µM (MAGL [4]): 50 to 75%

SMILES: O=C(O)c1ccn(C(=O)N2CCC(NCc3cccc(Oc4ccc(Cl)cc4)c3)CC2)n1 [Example 190, 1-(4-((3-(4-chlorophenoxy)benzyl)amino)piper-idine-1-carbonyl)-1H-pyrazole-3-carboxylic acid]
- inhibition at 1 µM (FAAH [1]): 50 to 75%
- inhibition at 1 µM (FAAH [2]): 25 to 50%
- inhibition at 1 µM (MAGL [3]): 25 to 50%
- inhibition at 1 µM (MAGL [4]): 0 to 25%

SMILES: O=C(O)c1ccn(C(=O)N2CCN(Cc3cccc(Oc4cccnc4)c3)CC2)n1 [Example 18, 1-(4-(3-(Pyridin-3-yloxy)benzyl)piperazine-1-carbonyl)-1H-pyrazole-3-carboxylic Acid]
- inhibition at 1 µM (FAAH [1]): 0 to 25%
- inhibition at 1 µM (FAAH [2]): 0 to 25%
- inhibition at 1 µM (MAGL [3]): 50 to 75%
- inhibition at 1 µM (MAGL [4]): 25 to 50%

SMILES: O=C(O)c1ccn(C(=O)N2CCN(Cc3cccc(Oc4ccccn4)c3)CC2)n1 [Example 52]
- inhibition at 1 µM (FAAH [1]): 0 to 25%
- inhibition at 1 µM (FAAH [2]): 0 to 25%
- inhibition at 1 µM (MAGL [3]): > 75%
- inhibition at 1 µM (MAGL [4]): > 75%

SMILES: O=C(O)c1ccn(C(=O)N2CCN(Cc3ccc(OC(F)(F)F)cc3-c3nnco3)CC2)n1 [Example 68, 1-(4-(2-(1,3,4-oxadiazol-2-yl)-4-(trifluoromethoxy)benzyl)piperazine-1-carbonyl)-1H-pyrazole-3-carboxylic acid]
- inhibition at 1 µM (FAAH [1]): 0 to 25%
- inhibition at 1 µM (FAAH [2]): 0 to 25%
- inhibition at 1 µM (MAGL [3]): > 75%
- inhibition at 1 µM (MAGL [4]): > 75%
